Biological target: T1, hDGAT1 (Homo sapiens, UniProt O75907)
T1 sequence (O75907 1-488): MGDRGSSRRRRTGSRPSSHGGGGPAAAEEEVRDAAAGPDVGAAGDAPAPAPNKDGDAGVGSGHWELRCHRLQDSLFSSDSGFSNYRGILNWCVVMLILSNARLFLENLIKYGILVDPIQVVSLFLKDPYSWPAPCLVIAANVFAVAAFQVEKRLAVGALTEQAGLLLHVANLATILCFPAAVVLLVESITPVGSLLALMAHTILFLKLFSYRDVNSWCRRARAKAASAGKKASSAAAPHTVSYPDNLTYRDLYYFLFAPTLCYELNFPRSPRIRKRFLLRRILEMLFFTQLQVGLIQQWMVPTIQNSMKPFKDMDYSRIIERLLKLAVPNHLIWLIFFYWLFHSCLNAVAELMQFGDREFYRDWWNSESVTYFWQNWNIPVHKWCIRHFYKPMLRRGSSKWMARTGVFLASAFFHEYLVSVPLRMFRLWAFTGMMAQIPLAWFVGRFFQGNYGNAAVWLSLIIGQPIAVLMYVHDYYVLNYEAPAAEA
Experiment: In-vitro DGAT1 assay (14C oleoyl CoA, hDGAT1 microsomes from Sf9 cells)
Settings: for inhibition at 1 µM: read-out: % Inhibition of hDGAT1; for % Inhibition of hDGAT1: at 1 μM

Row | SMILES | inhibition at 1 µM [%] | % Inhibition of hDGAT1
1 | CC(C)[C@@H](C(=O)O)N1Cc2ccc(-c3ccc(NC(=O)c4ccc(Cl)cc4)cc3)cc2C1=O [Example 114, (S)-2-(6-(4-(4-Chlorobenzamido)phenyl)-1-oxoisoindolin-2-yl)-3-methylbutanoic acid] | > 50 | –
2 | O=C(Nc1ccc(-c2ccc3c(c2)C(=O)N(C2(C(=O)O)CC2)C3)cc1)c1ccc(-c2ccccc2)cc1 [Example 586, 1-(6-(4-([1,1′-Biphenyl]-4-ylcarboxamido)phenyl)-1-oxoisoindolin-2-yl)cyclopropanecarboxylic acid] | – | ++ (>50% Inhibition)
3 | CC(C)[C@@H](C(=O)O)N1Cc2ccc(-c3ccc(NC(=O)C4C5CC6CC(C5)CC4C6)cc3)cc2C1=O (stereo partly drawn) [Example 190, (S)-2-(6-(4-(Adamantyl-2-carboxamido)phenyl)-1-oxoisoindolin-2-yl)-3-methylbutanoic acid] | – | ++ (>50% Inhibition)
4 | CC(C)[C@@H](C(=O)O)N1Cc2ccc(-c3ccc(NC(=O)c4c(Cl)cccc4Cl)cc3)cc2C1=O [Example 130, (S)-2-(6-(4-(2,6-Dichlorobenzamido)phenyl)-1-oxoisoindolin-2-yl)-3-methyl butanoic acid] | 10 to 50 | –
5 | CC(C)(C)c1ccc(C(=O)Nc2ccc(-c3ccc4c(c3)C(=O)N(C3(C(=O)O)CCCC3)C4)cc2)cc1 [Example 531, 1-(6-(4-(4-(tert-Butyl)benzamido)phenyl)-1-oxoisoindolin-2-yl)cyclopentane carboxylic acid] | > 50 | –
6 | O=C(Nc1ccc(-c2ccc3c(c2)C(=O)N(C2CCC(C(=O)O)CC2)C3)cc1)c1ccc(-c2ccccc2)cc1 (stereo not shown) [Example 557, (1r,4r)-4-(6-(4-([1,1′-Biphenyl]-4-ylcarboxamido)phenyl)-1-oxoisoindolin-2-yl)cyclohexanecarboxylic acid] | – | ++ (>50% Inhibition)
7 | CCOc1cc(OCC)cc(C(=O)Nc2ccc(-c3ccc4c(c3)C(=O)N([C@H](C(=O)O)C(C)C)C4)cc2)c1 [Example 146, (S)-2-(6-(4-(3,5-Diethoxybenzamido)phenyl)-1-oxoisoindolin-2-yl)-3-methyl butanoic acid] | > 50 | –
8 | O=C(O)CCCN1Cc2cc(-c3ccc(NC(=O)Nc4cccc(C(F)(F)F)c4)cc3)ccc2C1=O [Example 376, 4-(1-Oxo-5-(4-(3-(3-(trifluoromethyl)phenyl)ureido)phenyl)isoindolin-2-yl)butanoic acid] | 10 to 50 | –
9 | CC(C)[C@@H](C(=O)O)N1Cc2ccc(-c3ccc(NC(=O)c4ncc(-c5ccccc5)o4)cn3)cc2C1=O [Example 635, (S)-3-Methyl-2-(1-oxo-6-(5-(5-phenyloxazole-2-carboxamido)pyridin-2-yl)isoindolin-2-yl)butanoic acid] | > 50 | –
10 | CC(C)[C@@H](C(=O)O)N1Cc2ccc(-c3ccc(NC(=O)c4nnc(-c5ccccc5)[nH]4)cc3)cc2C1=O [Example 629, (S)-3-Methyl-2-(1-oxo-6-(4-(5-phenyl-4H-1,2,4-triazole-3-carboxamido)phenyl)isoindolin-2-yl)butanoic acid] | 10 to 50 | –
11 | CC(C)[C@@H](C(=O)O)N1Cc2ccc(-c3ccc(NC(=O)c4ccc(C(C)(C)C)cc4)cn3)cc2C1=O [Example 404, (S)-2-(6-(5-(4-tert-Butylbenzamido)pyridin-2-yl)-1-oxoisoindolin-2-yl)-3-methyl butanoic acid] | > 50 | –
12 | COc1ccc(S(=O)(=O)Nc2ccc(-c3ccc4c(c3)C(=O)N([C@H](C(=O)O)C(C)C)C4)cc2)cc1OC [Example 86, (S)-2-(6-(4-(3,4-Dimethoxyphenylsulfonamido)phenyl)-1-oxoisoindolin-2-yl)-3-methylbutanoic acid] | 10 to 50 | –
13 | CC(C)[C@@H](C(=O)O)N1Cc2ccc(-c3ccc(NC(=O)c4ccc(N5CCOCC5)nc4)cc3)cc2C1=O [Example 213, (S)-3-Methyl-2-(6-(4-(6-morpholinonicotinamido)phenyl)-1-oxoisoindolin-2-yl)butanoic acid] | 10 to 50 | –
14 | CC(C)[C@@H](C(=O)O)N1Cc2ccc(-c3ccc(NC(=O)Nc4ccc(F)cc4F)cc3)cc2C1=O [Example 10, (S)-2-(6-(4-(3-(2,4-Difluorophenyl)ureido)phenyl)-1-oxoisoindolin-2-yl)-3-methylbutanoic acid] | 10 to 50 | –
15 | CC(C)[C@@H](C(=O)O)N1Cc2ccc(-c3ccc(NC(=O)c4ccc(OC(F)(F)F)cc4)nn3)cc2C1=O [Example 502, (S)-3-Methyl-2-(1-oxo-6-(6-(4-(trifluoromethoxy)benzamido)pyridazin-3-yl)isoindolin-2-yl)butanoic acid] | > 50 | –
16 | CCCCCc1ccc(C(=O)Nc2ccc(-c3ccc4c(c3)C(=O)N(C(C)(C)C(=O)O)C4)cc2)cc1 [Example 525, 2-Methyl-2-(1-oxo-6-(4-(4-pentylbenzamido)phenyl)isoindolin-2-yl)propanoic acid] | 10 to 50 | –

Row | SMILES | inhibition at 1 µM [%] | % Inhibition of hDGAT1
17 | CC(C)(C(=O)O)N1Cc2ccc(-c3ccc(NC(=O)Nc4cccc(C(F)(F)F)c4)cc3)cc2C1=O [Example 340, 2-Methyl-2-(1-oxo-6-(4-(3-(3-(trifluoromethyl)phenyl)ureido)phenyl)isoindolin-2-yl)propanoic acid] | 10 to 50 | –
18 | O=C(Nc1ccc(-c2ccc3c(c2)C(=O)N([C@@H]2CCC[C@@H]2C(=O)O)C3)cc1)c1ccc(Cl)cc1 [Example 596, (1S,2R)-2-(6-(4-(4-Chlorobenzamido)phenyl)-1-oxoisoindolin-2-yl)cyclopentane carboxylic acid] | > 50 | –
19 | CC(C)[C@@H](C(=O)O)N1Cc2ccc(-c3ccc(NC(=O)c4ncc(-c5ccccc5)s4)cc3)cc2C1=O [Example 612, (S)-3-Methyl-2-(1-oxo-6-(4-(5-phenylthiazole-2-carboxamido)phenyl)isoindolin-2-yl)butanoic acid] | > 50 | –
20 | CC(C)[C@@H](C(=O)O)N1Cc2ccc(-c3ccc(NC(=O)c4ccc(C(C)(C)C)cc4)cc3F)cc2C1=O [Example 604, (S)-2-(6-(4-(4-(tert-Butyl)benzamido)-2-fluorophenyl)-1-oxoisoindolin-2-yl)-3-methylbutanoic acid] | > 50 | –
21 | CC(C)[C@@H](C(=O)O)N1Cc2ccc(-c3ccc(NC(=O)c4cc(-c5ccc(F)cc5)no4)cc3)cc2C1=O [Example 616, (S)-2-(6-(4-(3-(4-Fluorophenyl)isoxazole-5-carboxamido)phenyl)-1-oxoisoindolin-2-yl)-3-methylbutanoic acid] | > 50 | –
22 | COc1ccc(NC(=S)Nc2ccc(-c3ccc4c(c3)C(=O)N([C@H](C(=O)O)C(C)C)C4)cc2)cc1 [Example 58, (S)-2-(6-(4-(3-(4-Methoxyphenyl)thioureido)phenyl)-1-oxoisoindolin-2-yl)-3-methylbutanoic acid] | > 50 | –
23 | CC(C)[C@@H](C(=O)O)N1Cc2ccc(-c3ccc(NC(=O)c4ccc5ccccc5c4)cc3)cc2C1=O [Example 122, (S)-2-(6-(4-(2-Naphthamido)phenyl)-1-oxoisoindolin-2-yl)-3-methylbutanoic acid] | > 50 | –
24 | CC(C)[C@@H](C(=O)O)N1Cc2ccc(-c3ccc(NC(=S)Nc4ccccc4C(F)(F)F)cc3)cc2C1=O [Example 66] | – | ++ (>50% Inhibition)
25 | CC(C)[C@@H](C(=O)O)N1Cc2ccc(-c3ccc(NC(=O)Nc4ccc(Cl)cc4Oc4ccccc4)cc3)cc2C1=O [Example 44, (S)-2-(6-(4-(3-(4-Chloro-2-phenoxyphenyl)ureido)phenyl)-1-oxoisoindolin-2-yl)-3-methylbutanoic acid] | > 50 | –
26 | O=C(Nc1ccc(-c2ccc3c(c2)C(=O)N([C@H]2CC[C@H](C(=O)O)CC2)C3)cc1)c1cccc(Cl)c1 [Example 559, (1r,4r)-4-(6-(4-(3-Chlorobenzamido)phenyl)-1-oxoisoindolin-2-yl)cyclohexane carboxylic acid] | – | ++ (>50% Inhibition)
27 | CC(C)[C@@H](C(=O)O)N1Cc2ccc(-c3ccc(NC(=O)c4ccc(OC(F)(F)F)cc4)cc3)cc2C1=O [Example 158, (S)-3-Methyl-2-(1-oxo-6-(4-(4-(trifluoromethoxy)benzamido)phenyl)isoindolin-2-yl)butanoic acid] | > 50 | –
28 | CC(C)[C@@H](C(=O)O)N1Cc2ccc(-c3ccc(NC(=O)c4ccc(-c5ccccc5)cc4)cc3F)cc2C1=O [Example 602, (S)-2-(6-(4-([1,1′-Biphenyl]-4-ylcarboxamido)-2-fluorophenyl)-1-oxoisoindolin-2-yl)-3-methylbutanoic acid] | – | ++ (>50% Inhibition)
29 | CC(C)[C@@H](C(=O)O)N1Cc2ccc(-c3ccc(NC(=O)c4cc(-c5ccc(Cl)cc5)no4)cc3)cc2C1=O [Example 618, (S)-2-(6-(4-(3-(4-Chlorophenyl)isoxazole-5-carboxamido)phenyl)-1-oxoisoindolin-2-yl)-3-methylbutanoic acid] | > 50 | –
30 | O=C(O)CCN1Cc2cc(-c3ccc(NC(=O)Nc4cccc(C(F)(F)F)c4)cc3)ccc2C1=O [Example 379, 3-(1-Oxo-5-(4-(3-(3-(trifluoromethyl)phenyl)ureido)phenyl)isoindolin-2-yl)propanoic acid] | 10 to 50 | –
31 | CC(C)[C@@H](C(=O)O)N1Cc2ccc(-c3ccc(NC(=O)c4ccc(C5CCCCC5)cc4)cc3)cc2C1=O [Example 174, (S)-2-(6-(4-(4-Cyclohexylbenzamido)phenyl)-1-oxoisoindolin-2-yl)-3-methyl butanoic acid] | > 50 | –

From US8748426B2, “Inhibitors of diacylglycerol acyl transferase” (Piramal Enterprises Limited, priority 2009, dated 2014)
